Assay results published in patent US20240082183A1, “METHODS FOR PREVENTING OR TREATING CONDITIONS RELATED TO T CELL MEDIATED INTESTINAL DISORDERS” (The Regents of the University of Michigan, priority 2021, published 2024).

How the values were obtained:
[1] = tested on: primary colonic epithelial cells (PCECs); assay: 51Cr release cytotoxic killing assay, pre-treated PCECs as targets of primed T cells; assay type: cell-based, B6 WT mice; settings: for cell death of pre-treated PCECs vs diluent: co-cultured with allo-primed T cells; for apoptosis of pre-treated PCECs: cultured with syngeneic T cells
SDHA = biological target: T1, SDHA (Mus musculus, UniProt Q8K2B3+Q9CQA3+Q9CXV1+Q9CZB0); assay: SDH enzyme staining of colon and ileum 12 h after oral gavage; assay type: in vivo, B6 WT mice; settings: naive B6 WT, 12 h after administration
T1 construct: from tissue; host or cells: colon and ileum of naive B6 WT mice
Description: Hematopoietic cell transplantation (HCT): Splenic T cells from donors were enriched, and the BM was depleted of T cells by autoMACS (Miltenyi Biotec, Bergisch Gladbach, Germany) utilizing CD90.2 microbeads (#130-121-278, Miltenyi Biotec). WT B6, C3H.SW, Sdhaf1^−/−, Sdha^Δ/IEC , Irg1h−/−B6 and BALB/c animals were used as recipients and received 1,000 cGy (WT B6, Sdhaf1^−/−and Sdha^Δ/IEC) or 800 cGy (BALB/c) TBI on day −1, respectively, and 1×10^6 (C3H.SW→C57BL/B6 or C57BL/B6→BALB/c), 3×10^6 (BALB/c→C57BL/6, Sdhaf1^−/−, Sdha^Δ/IEC) CD90.2^+T cells along with 5×10^6 T-cell-depleted BM (TCD-BM) cells from either syngeneic or allogeneic donors on day 0. [B6Ly5.2→B6] and [B6 Ly5.2→Sdhaf1^−/−] animals received 900 cGy TBI on day −1 and were injected intravenously with 3×10^6 CD90.2^+T cells and 5×10^6 TCD-BM from either syngeneic B6 or BALB/c donors on day 0. For the chemotherapy conditioning model, B6 WT mice received busulfan (#B2635, 25 mg kg^−1 from day −7 to −4; Sigma-Aldrich) and cyclophosphamide (#C7397, 100 mg kg^−1 from day −3 to −2; Sigma-Aldrich) intraperitoneally, and 1×10^7 (BALB/c→C57BL/6) CD90.2^+T cells along with 1×10^7 TCD-BM cells from either syngeneic or allogeneic donors on day 0. For the no-irradiated model, unirradiated B6D2F1 mice were intravenously injected with 10×10^7 splenocytes from B6D2F1 or B6 donors. Animals received vehicle or dimethyl malonate (DMM, #136441, 0.5 g or 5g kg^−1, Sigma-Aldrich, St. Louis, MO, USA), dimethyl itaconate (DI, #09533, 0.25 g or 2.5g kg^−1, Sigma-Aldrich) or atpenin A5 (#11898, 0.9 μg or 9 μg kg^−1, Cayman Chemical, Ann Arbor, MI, USA) according to manufacturer's instructions by flexible 20-gauge, 1,5-in, intra-gastric gavage needle every other day from day 0. […]
Succinate dehydrogenase functional staining: Specimens were dissected from naïve, syngeneic and allogeneic WT B6 mice at 7 and 21 days post HCT. […] After mounting the slides, images were obtained using Olympus BX51M (Olympus, Japan) and the SDH activity was quantified using Image J (National Institutes of Health, Bethesda, […], USA).

[2] = tested on: GI GVHD in B6 WT recipients; assay type: in vivo; settings: for histopathological GVHD severity in the colon and ileum / histopathological GVHD severity in the liver, skin, and lungs: allogeneic recipients, 7 days post HCT; for clinical GVHD severity of allogeneic mice vs vehicle / survival of allogeneic mice vs vehicle / survival of syngeneic mice: gavage every other day from day 0 post HCT
Description: Hematopoietic cell transplantation (HCT): Splenic T cells from donors were enriched, and the BM was depleted of T cells by autoMACS (Miltenyi Biotec, Bergisch Gladbach, Germany) utilizing CD90.2 microbeads (#130-121-278, Miltenyi Biotec). WT B6, C3H.SW, Sdhaf1^−/−, Sdha^Δ/IEC , Irg1h−/−B6 and BALB/c animals were used as recipients and received 1,000 cGy (WT B6, Sdhaf1^−/−and Sdha^Δ/IEC) or 800 cGy (BALB/c) TBI on day −1, respectively, and 1×10^6 (C3H.SW→C57BL/B6 or C57BL/B6→BALB/c), 3×10^6 (BALB/c→C57BL/6, Sdhaf1^−/−, Sdha^Δ/IEC) CD90.2^+T cells along with 5×10^6 T-cell-depleted BM (TCD-BM) cells from either syngeneic or allogeneic donors on day 0. [B6Ly5.2→B6] and [B6 Ly5.2→Sdhaf1^−/−] animals received 900 cGy TBI on day −1 and were injected intravenously with 3×10^6 CD90.2^+T cells and 5×10^6 TCD-BM from either syngeneic B6 or BALB/c donors on day 0. For the chemotherapy conditioning model, B6 WT mice received busulfan (#B2635, 25 mg kg^−1 from day −7 to −4; Sigma-Aldrich) and cyclophosphamide (#C7397, 100 mg kg^−1 from day −3 to −2; Sigma-Aldrich) intraperitoneally, and 1×10^7 (BALB/c→C57BL/6) CD90.2^+T cells along with 1×10^7 TCD-BM cells from either syngeneic or allogeneic donors on day 0. For the no-irradiated model, unirradiated B6D2F1 mice were intravenously injected with 10×10^7 splenocytes from B6D2F1 or B6 donors. Animals received vehicle or dimethyl malonate (DMM, #136441, 0.5 g or 5g kg^−1, Sigma-Aldrich, St. Louis, MO, USA), dimethyl itaconate (DI, #09533, 0.25 g or 2.5g kg^−1, Sigma-Aldrich) or atpenin A5 (#11898, 0.9 μg or 9 μg kg^−1, Cayman Chemical, Ann Arbor, MI, USA) according to manufacturer's instructions by flexible 20-gauge, 1,5-in, intra-gastric gavage needle every other day from day 0. The mice were randomly assigned to syngeneic, allogeneic or treatment groups in each experiment. No mice were excluded from analysis. No statistical methods were used to predetermine sample size. The investigators were not blinded to allocation during experiments and outcome assessment.
Systemic and histopathological analysis of GVHD: Survival after HCT was monitored daily and assessed the degree of clinical GVHD weekly, as described previously^64. Histopathological analysis of the liver, gastrointestinal (GI) tract, and lung, which are the primary GVHD target organs, was performed as described utilizing a semi-quantitative scoring system implemented in a blinded manner by a single pathologist (C.L.)^65. After scoring, the codes were broken, and the data compiled.

[3] = tested on: primary colonic epithelial cells (PCECs); assay: In vitro allogeneic CTL assay, AnnexinV positive cells of Green CMFDA Dye positive PCECs; settings: PCECs treated 0.2 mM for 2 hours
Description: PCECs were pre-treated with 5mM DMM, 0.5mM DI, 10nM atpenin A5 or vehicle for 3 hours.
Flow cytometry: Cells were re-suspended in 2% BSA in PBS and stained with the following antibodies and reagents; FITC-anti-CD326 (G8.8, #118208, 1:200), APC-anti-CD326 (G8.8, #118214, 1:200), DAPI, CellROX Deep Red (#C10491, 500 nM, Thermo Scientific), MitoSOX (#M36008, 5 μM, Thermo Scientific), JC-1 (#M34152, 2 μM, Thermo Scientific), 7-AAD (#420404, 1:100, BioLegend), Annexin V (#640947, 1:20, Biolegend), anti-CD16/CD32 antibody (BD Biosciences, 2.4G2), APC-anti-CD45.2 (#109814, 1:200, BioLegend), and CellTracker Green CMFDA Dye (#C7025, 1 μM, Invitrogen) according to manufacturer's protocol. Cells were run on Attune NxT flow cytometer (Thermo Scientific) and analyzed using FlowJo v10.2 (FlowJo LLC, Ashland, OR).

B6 WT mice, colonic IECs = assay: DSS chemical induced colitis model; assay type: in vivo; settings: twelve days after DSS treatment, vs control animals
Description: Colitis models: For the DSS colitis model, animals were provided with drinking water containing 2.5-3% DSS (#0216011010. MP Biomedicals, Santa Ana, CA) for 7 days. Mice were injected with 100 μg of anti-CTLA-4 mAb (#BE0164, clone 9D9, Bio X Cell, West Lebanon, NH) or isotype control (#BE0086, MCP-11, Bio X Cell) twice (3 and 1 day before DSS administration). For the T-cell transfer induced colitis model, isolated splenic T cells from WT B6 and Prf^−/−mice were stained with DAPI (#422801, 1 μM, Biolenged), APC-Cy7 anti-CD4 (#560246, GK1.5, 1:100, BD Biosciences, San Jose, CA), APC anti-CD25 (#101910, 3C7, 1:100, Biolegend), FITC anti-CD44 (#103006, IM7, 1:100, Biolegend) and PE anti-CD45RB (#103308, C363-16A, 1:100, Biolegend). CD4^+CD25^−CD44^−CD45RB^hi cells were sorted with the MoFlo Astrios cell sorter (Beckman Coulter, Indianapolis, IN) and intraperitoneally injected into Rag-1^−/−recipients.
Fluorescent immunohistochemistry staining: Sections were prepared as mentioned in the SDH functional staining method. […] SDH levels were quantified and measured in intensity from Cy3 positive epithelial cells using Image J. For primary mice colonic epithelial cells, cells were spun down and put on coverslips. […]
Succinate quantification: Isolated IECs were collected, processed and analysed using the Succinate Assay Kit (#ab204718, Abcam) according to the manufacturer's protocol.

[4] = tested on: isolated mitochondria of colon; assay: ATP detection assay in isolated mitochondria from IECs; assay type: biochemical, mice; settings: 21 days post HCT, after malonate treatment
Description: Mitochondria Isolation: Isolated IECs from syngeneic and allogeneic recipients in mitochondria isolation buffer (MIB) were disrupted using a glass homogenizer with 2-3 strokes. MIB was composed of 70 mM sucrose (#S0389, Sigma-Aldrich), 210 mM mannitol (#M9546, Sigma-Aldrich), 5 mM HEPES, 1 mM EGTA (#E0396, Sigma-Aldrich), 0.5% BSA, pH 7.2 and protease inhibitor cocktail (#78429, Sigma-Aldrich). Homogenate was centrifuged at 800 g for 10 min at 4° C. Following centrifugation, fat/lipid was carefully aspirated, and the remaining supernatant was decanted through 2 layers of cheesecloth to a separate tube and centrifuged twice at 8000 g for 15 min at 4° C. After removal of the light mitochondrial layer, the pellet was resuspended in MIB and centrifuged at 8500 g for 10 min. The final pellet was resuspended in a minimal volume of mitochondrial assay solution (MAS) and kept on ice. […] Total protein (mg/ml) was determined via Pierce BCA Protein Assay (#23225, Thermo Scientific). […] The ATP level was measured using the Cell Titer Glo 2.0 luminescence assay (#G9243, Promega, Madison, WI). Luminescence was measured for 500 ms using a SpectraMax M3 Microplate reader (Molecular Devices, San Jose, CA).

[5] = tested on: primary colonic epithelial cells (PCECs); assay: Apoptosis of pre-treated PCECs induced by perforin and Granzyme B; assay type: cell-based, C57BL/6 mice; settings: pre-treated 2 hours, then perforin and Granzyme B 4 hours
Description: Cell culture: C57BL/6 primary colonic epithelial cells (PCEC, C57-6047, Cell Biologics, Chicago, IL) were cultured in compete epithelial growth medium supplemented with insulin-transferrin-selenium, epidermal growth factor, glutamine, antibiotics, antimycotics and fecal bovine serum (#M6621, Cell Biologics). Cells were routinely tested for mycoplasma contamination using MycoAlert (#LT07-318, Lonza, Switzerland). Cells were treated with Mouse active perforin (#APB317Mu01, Cloud-Clone Corp., Katy, TX) and recombinant mouse Granzyme B (#140-03, PeproTech, Rocky Hill, NJ) for 4 to 6 hours in indicated concentrations following manufacturer's recommendations. Cells were incubated with GDF-15 (#8944-GD-025, 500 pg/mL, R&D Systems, Minneapolis, MN), Tiron (#172553, 10 mM, Sigma-Aldrich, St. Louis, MO), Trolox (#648471, 0.5 mM, Sigma-Aldrich), 4-Octyl itaconate (#SML2338, 0.1 mM, Sigma-Aldrich) and NAD (#N8285, 1 mM, Sigma-Aldrich).

T1 sequence (Q8K2B3 43-664): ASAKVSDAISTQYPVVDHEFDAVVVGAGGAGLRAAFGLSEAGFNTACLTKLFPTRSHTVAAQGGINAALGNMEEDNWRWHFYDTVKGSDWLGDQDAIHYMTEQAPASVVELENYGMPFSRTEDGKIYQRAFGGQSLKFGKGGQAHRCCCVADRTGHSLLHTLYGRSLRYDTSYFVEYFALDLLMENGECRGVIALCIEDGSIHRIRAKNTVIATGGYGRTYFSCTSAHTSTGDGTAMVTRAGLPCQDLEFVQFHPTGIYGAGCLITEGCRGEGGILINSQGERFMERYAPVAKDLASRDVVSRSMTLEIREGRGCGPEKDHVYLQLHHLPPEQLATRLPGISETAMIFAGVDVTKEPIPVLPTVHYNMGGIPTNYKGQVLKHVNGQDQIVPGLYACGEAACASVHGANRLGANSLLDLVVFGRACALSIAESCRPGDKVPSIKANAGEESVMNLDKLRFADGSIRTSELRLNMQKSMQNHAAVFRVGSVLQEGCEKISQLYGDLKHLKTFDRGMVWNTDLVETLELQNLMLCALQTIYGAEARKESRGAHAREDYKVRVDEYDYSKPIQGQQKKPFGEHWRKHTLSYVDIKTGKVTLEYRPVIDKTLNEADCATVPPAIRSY
T1 sequence (Q9CQA3 31-282): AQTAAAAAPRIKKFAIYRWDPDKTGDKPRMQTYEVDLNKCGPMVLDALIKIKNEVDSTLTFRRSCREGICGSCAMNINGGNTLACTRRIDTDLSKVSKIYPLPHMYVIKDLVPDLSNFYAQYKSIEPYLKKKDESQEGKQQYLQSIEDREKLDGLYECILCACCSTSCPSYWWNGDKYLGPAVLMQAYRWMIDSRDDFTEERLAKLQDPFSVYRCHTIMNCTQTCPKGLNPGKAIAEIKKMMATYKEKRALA
T1 sequence (Q9CZB0 30-169): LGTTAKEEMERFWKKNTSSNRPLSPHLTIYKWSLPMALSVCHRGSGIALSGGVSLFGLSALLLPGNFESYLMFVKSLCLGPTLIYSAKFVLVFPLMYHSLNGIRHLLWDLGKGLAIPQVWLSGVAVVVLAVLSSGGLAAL
T1 sequence (Q9CXV1 57-159): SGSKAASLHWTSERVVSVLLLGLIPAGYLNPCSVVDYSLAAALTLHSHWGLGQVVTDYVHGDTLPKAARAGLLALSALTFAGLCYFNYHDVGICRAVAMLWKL

In the case of C=C(CC(=O)OC)C(=O)OC [itaconate, dimethyl itaconate], the “cell death of pre-treated PCECs vs diluent” value [1] is reported as “significantly higher levels of cell death”, the “apoptosis of pre-treated PCECs” value [1] is reported as “no increase in apoptosis” and the “SDHA function (SDH enzymatic staining)” value (SDHA) is reported as “inhibited SDHA function”. For the same compound, the “histopathological GVHD severity in the colon and ileum” value [2] was “increased GVHD severity”, the “histopathological GVHD severity in the liver, skin, and lungs” value [2] was “not in the liver, skin, and lungs” and the “clinical GVHD severity of allogeneic mice vs vehicle” value [2] was “more severe GVHD symptoms”. For the same compound, the “survival of allogeneic mice vs vehicle” value [2] was “died significantly faster”.
For C=C(CC(=O)OCCCCCCCC)C(=O)O [4-octyl itaconate, 4-Octyl itaconate], the “susceptibility to T cell mediated cytotoxicity” value [3] was “enhance susceptibility to T cell mediated cytotoxicity”.
dextran sulfate sodium [DSS] was tested, and the “SDHA levels in colonic IECs” value (B6 WT mice, colonic IECs) was “similar” and the “succinate levels in colonic IECs” value (B6 WT mice, colonic IECs) was “similar”.
COC(=O)CC(=O)OC [malonate, dimethyl malonate] was tested, and the “ATP production, difference between mitochondria from allogeneic and syngeneic/naive animals” value [4] was “difference diminished”, the “cell death of pre-treated PCECs vs diluent” value [1] was “significantly higher levels of cell death” and the “apoptosis of pre-treated PCECs” value [1] was “no increase in apoptosis”. For the same compound, the “SDHA function (SDH enzymatic staining)” value (SDHA) was “inhibited SDHA function”, the “histopathological GVHD severity in the colon and ileum” value [2] was “increased GVHD severity” and the “histopathological GVHD severity in the liver, skin, and lungs” value [2] was “not in the liver, skin, and lungs”. The “clinical GVHD severity of allogeneic mice vs vehicle” value [2] was “more severe GVHD symptoms”, the “survival of allogeneic mice vs vehicle” value [2] was “died significantly faster” and the “survival of syngeneic mice” value [2] was “survived”.
In the case of COc1[nH]c(=O)c(C(=O)[C@@H](C)C[C@H](C)[C@@H](Cl)CCl)c(O)c1OC [atpenin A5], the “SDHA function (SDH enzymatic staining)” value (SDHA) is reported as “inhibited SDHA function”, the “clinical GVHD severity of allogeneic mice vs vehicle” value [2] is reported as “more severe GVHD symptoms” and the “survival of allogeneic mice vs vehicle” value [2] is reported as “died significantly faster”. The “survival of syngeneic mice” value [2] was “survived”.
For O=S(=O)(O)c1cc(O)c(O)c(S(=O)(=O)O)c1 [Tiron], the “apoptosis of PCECs induced by GranzymeB and perforin” value [5] was “did not reduce apoptosis”.
For Cc1c(C)c2c(c(C)c1O)CCC(C)(C(=O)O)O2 (stereo not shown) [Trolox], the “apoptosis of PCECs induced by GranzymeB and perforin” value [5] was “did not reduce apoptosis”.
